In patent US8716287B2, “Pharmaceutical compounds” (Sentinel Oncology Limited, priority 2010, dated 2014):
Entries after “also recorded” stand apart in the source; their conditions may differ. Structures can show the parent of a compound that is named as a salt. Where two headings read alike, the source gives them in different places.

Tests used:
Chk-1 kinase = Chk-1 kinase (Homo sapiens (Human), UniProt O14757); test: Chk-1 kinase inhibiting activity (33P-ATP filter assay, CHKtide substrate); assay type: biochemical
Experimental: The compounds of the invention were tested for activity against Chk-1 kinase using the materials and protocols set out below.
Base Reaction buffer: 20 mM Hepes (pH 7.5), 10 mM MgCl2, 1 mM EGTA, 0.02% Brij35, 0.02 mg/ml BSA, 0.1 mM Na3VO4, 2 mM DTT, 1% DMSO
*Required cofactors are added individually to each kinase reaction
(i) Prepare indicated substrate in freshly prepared Base Reaction Buffer
(ii) Deliver any required cofactors to the substrate solution above
(iii) Deliver indicated kinase into the substrate solution and gently mix
(iv) Deliver compounds in DMSO into the kinase reaction mixture
(v) Deliver ^33P-ATP (specific activity 0.01 μCi/μl final) into the reaction mixture to initiate the reaction.
(vi) Incubate kinase reaction for 120 minutes at room temperature
(vii) Reactions are spotted onto P81 ion exchange paper (Whatman #3698-915)
(viii) Wash filters extensively in 0.1% phosphoric acid.
(ix) Dry filters and measure counts in scintillation counter
Recombinant full length construct, N-terminal GST tagged, purified from insect cells.
No special measures were taken to activate this kinase.
Final concentration in assay=0.5 nM
Peptide sequence: [[…]]
Final concentration in assay=20 μM
No additional cofactors are added to the reaction mixture

HT29 cells = test: Sensitisation of HT29 cells to SN38 (Alamar blue cell growth); assay type: cell-based, human; details: for fold shift in the IC50 value of SN38: HT29 cells; for Cell potentiation factor: SN38 sensitisation assay in HT-29 cells
Experimental: Studies were carried out to test the sensitising effect of compounds of the invention on the ability of the DNA damaging compound 7-ethyl-10-hydroxycamptothecin (SN38), an active metabolite of the anti-cancer drug irinotecan, to inhibit cell growth in HT29 cells.
The following protocol was used:
(a) HT29 cells were seeded in 96-well plates at a concentration of 3000 cells per well and allowed to adhere overnight prior to addition of compound or vehicle control.
(b) SN38 was prepared from a 10 mM DMSO stock to give a final concentration range of 1 μM, 300 nM, 100 nM, 30 nM, 10 nM, 3 nM, 1 nM, and vehicle control.
(c) Test compounds were prepared from 10 mM DMSO stocks to typically give a final concentration range of 3 μM, 1 μM, 0.3 μM. 0.1 μM, 0.03 μM and vehicle control. The final DMSO content was 0.4%.
(d) Test compounds were incubated with the cells for 72 h at 37° C. 5% CO2 in a humidified atmosphere.
(e) Alamar blue 10% (v/v) was then added and incubated for a further 6 h, and fluorescent product detected using the BMG FLUOstar plate reader.
(f) Data were analysed using a 4-parameter logistic equation in GraphPad Prism.
Sensitisation is determined by the enhancement in IC50 of SN38 by the addition of the Chk-1 kinase inhibitor. In the protocol described above, the IC50 for SN-38 is determined the presence of varying doses of the Chk-1 inhibitor. The fold shift represents a decrease in IC50 for SN-38 at a dose of Chk-1 inhibitor that has no effect by itself.

[1] = Chk-1 kinase, Table 3, read-out: IC50
[2] = ranges given, read-out: IC50 values against Chk-1 kinase

Sequence of Chk-1 kinase (O14757 whole entry): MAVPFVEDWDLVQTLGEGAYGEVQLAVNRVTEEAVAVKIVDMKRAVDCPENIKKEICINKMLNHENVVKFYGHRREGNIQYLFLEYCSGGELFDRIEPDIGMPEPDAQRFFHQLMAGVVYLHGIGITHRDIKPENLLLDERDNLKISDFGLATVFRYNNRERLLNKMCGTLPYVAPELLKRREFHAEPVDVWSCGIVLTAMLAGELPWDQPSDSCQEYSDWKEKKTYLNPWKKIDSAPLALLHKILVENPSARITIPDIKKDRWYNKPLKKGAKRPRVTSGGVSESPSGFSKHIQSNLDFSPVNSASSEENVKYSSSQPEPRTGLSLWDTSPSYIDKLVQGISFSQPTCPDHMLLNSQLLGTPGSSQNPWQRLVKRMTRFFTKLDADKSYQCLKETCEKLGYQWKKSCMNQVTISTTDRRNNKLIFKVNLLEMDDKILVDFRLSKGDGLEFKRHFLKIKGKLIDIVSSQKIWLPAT

Row | Compound | IC50 (Chk-1 kinase; [1]) [nM] | IC50 (Chk-1 kinase; [2]) [nM] | IC50 (Chk-1 kinase; comparative tests, Example 70, read-out: Chk-1 IC50) [nM] | fold shift in the IC50 value of SN38 (HT29 cells; test compound at 3 μM) | fold shift in the IC50 value of SN38 (HT29 cells; test compound at 1 μM) | Cell potentiation factor (HT29 cells; compound at 3 μM) [fold] | fold shift in the IC50 value of SN38 (HT29 cells; test compound at 10 μM) | Cell potentiation factor (HT29 cells; compound at 10 μM) [fold]
1 | N#Cc1cnc(NC(=O)Nc2ccc(CCNCc3ccccc3Cl)c(Cl)c2)cn1 [Example 10, 1-{3-Chloro-4-[2-(2-chloro-benzylamino)-ethyl]-phenyl}-3-(5-cyano-pyrazin-2-yl)-urea] | 62 | 10 to 100 |  | three |  |  |  | 
2 | CN(CCc1ccc(NC(=O)Nc2cnc(C#N)cn2)cc1Cl)Cc1ccc(F)cc1 [Example 11, 1-(3-Chloro-4-{2-[(4-fluoro-benzyl)-methyl-amino]-ethyl}-phenyl)-3-(5-cyano-pyrazin-2-yl)-urea] | 146 | 100 to 1000 |  | three |  |  |  | 
3 | N#Cc1cnc(NC(=O)Nc2ccc(CCNCc3cccc(Cl)c3)c(Cl)c2)cn1 [Example 13, 1-{3-Chloro-4-[2-(3-chloro-benzylamino)-ethyl]-phenyl}-3-(5-cyano-pyrazin-2-yl)-urea hydrochloride] | 37 | 10 to 100 |  |  | two |  |  | 
4 | N#Cc1cnc(NC(=O)Nc2ccc(CCNCc3ccc(OC(F)(F)F)cc3)c(Cl)c2)cn1 [Example 14, 1-{3-Chloro-4-[2-(4-trifluoromethoxy-benzylamino)-ethyl]-phenyl}-3-(5-cyano-pyrazin-2-yl)-urea] | 68 | 10 to 100 |  | three |  |  |  | 
5 | COc1ccccc1CNCCc1ccc(NC(=O)Nc2cnc(C#N)cn2)cc1Cl [Example 16, 1-{3-Chloro-4-[2-(2-methoxy-benzylamino)-ethyl]-phenyl}-3-(5-cyano-pyrazin-2-yl)-urea] | 13 | 10 to 100 |  |  | two |  |  | 
6 | N#Cc1cnc(NC(=O)Nc2ccc(CCNCc3ccc(C(F)(F)F)cc3)c(Cl)c2)cn1 [Example 17, 1-{3-Chloro-4-[2-(4-trifluoromethyl-benzylamino)-ethyl]-phenyl}-3-(5-cyano-pyrazin-2-yl)-urea hydrochloride] | 78 | 10 to 100 |  |  | two |  |  | 
7 | C[C@H](NCCc1ccc(NC(=O)Nc2cnc(C#N)cn2)cc1Cl)c1ccc(F)cc1 [Example 18, 1-(3-Chloro-4-{2-[(S)-1-(4-fluoro-phenyl)-ethylamino]-ethyl}-phenyl)-3-(5-cyano-yrazin-2-yl)-urea hydrochloride] | 21 | 10 to 100 |  |  | two |  |  | 
8 | N#Cc1cnc(NC(=O)Nc2ccc(OCCNCc3ccc(F)cc3)c(Cl)c2)cn1 [Example 26, 1-{3-Chloro-4-[2-(4-fluoro-benzylamino)-ethoxy]-phenyl}-3-(5-cyano-pyrazin-2-yl)-urea] | 21 | 10 to 100 |  | three |  |  |  | 
9 | COc1cc(CCNCc2ccc(F)cc2)ccc1NC(=O)Nc1cnc(C)cn1 [Example 27, 1-{4-[2-(4-Fluoro-benzylamino)-ethyl]-2-methoxy-phenyl}-3-(5-methyl-pyrazin-2-yl)-urea hydrochloride] | 33 | 10 to 100 |  | three |  |  |  | 
10 | N#Cc1cnc(NC(=O)Nc2ccc(CNCc3ccccc3)cc2)cn1 [Example 29, 1-[4-(Benzylamino-methyl)-phenyl]-3-(5-cyano-pyrazin-2-yl)-urea] | 320 | 100 to 1000 |  |  |  |  | four | 4
11 | N#Cc1cnc(NC(=O)Nc2cccc(CCNCc3ccc(F)cc3)c2)cn1 [Example 34, 1-(5-Cyano-pyrazin-2-yl)-3-{3-[2-(4-fluoro-benzylamino)-ethyl]-phenyl}-urea] | 69 |  |  | three |  |  |  | 
12 | N#Cc1cnc(NC(=O)Nc2ccc(CCNCc3cccc(N4CCOCC4)c3)c(Cl)c2)cn1 [Example 39, 1-{3-Chloro-4-[2-(3-morpholin-4-yl-benzylamino)-ethyl]-phenyl}-3-(5-cyano-pyrazin-2-yl)-urea] | 12 |  |  | three |  |  |  | 

The next compounds have a lower IC50 (Chk-1 kinase; [1]) than those just listed; values first:

Row | IC50 (Chk-1 kinase; [1]) [nM] | IC50 (Chk-1 kinase; [2]) [nM] | IC50 (Chk-1 kinase; comparative tests, Example 70, read-out: Chk-1 IC50) [nM] | Compound | fold shift in the IC50 value of SN38 (HT29 cells; test compound at 3 μM) | fold shift in the IC50 value of SN38 (HT29 cells; test compound at 1 μM) | Cell potentiation factor (HT29 cells; compound at 3 μM) [fold] | fold shift in the IC50 value of SN38 (HT29 cells; test compound at 10 μM) | Cell potentiation factor (HT29 cells; compound at 10 μM) [fold]
13 | 2 | < 10 |  | N#Cc1cnc(NC(=O)Nc2ccc(CCNCc3cccc(F)c3)c(Cl)c2)cn1 [Example 9, 1-{3-Chloro-4-[2-(3-fluoro-benzylamino)-ethyl]-phenyl}-3-(5-cyano-pyrazin-2-yl)-urea] | three; also recorded: greater than ten |  |  |  | 
14 | 11 | 10 to 100 |  | COc1cccc(CNCCc2ccc(NC(=O)Nc3cnc(C#N)cn3)cc2Cl)c1 [Example 12, 1-{3-Chloro-4-[2-(3-methoxy-benzylamino)-ethyl]-phenyl}-3-(5-cyano-pyrazin-2-yl)-urea] | three; also recorded: greater than ten |  |  |  | 
15 | 3.5 | < 10 |  | COc1ccc(CNCCc2ccc(NC(=O)Nc3cnc(C#N)cn3)cc2Cl)cc1 [Example 15, 1-{3-Chloro-4-[2-(4-methoxy-benzylamino)-ethyl]-phenyl}-3-(5-cyano-pyrazin-2-yl)-urea] | three; also recorded: greater than ten |  |  |  | 
16 | 1.2 | < 10 | 8 | COc1cc(CCNCc2cccc(F)c2)c(Cl)cc1NC(=O)Nc1cnc(C#N)cn1 [Example 19, 1-{5-Chloro-4-[2-(3-fluoro-benzylamino)-ethyl]-2-methoxy-phenyl}-3-(5-cyano-pyrazin-2-yl)-urea hydrochloride] |  |  | 50 |  | 
17 | 11 | 10 to 100 |  | N#Cc1cnc(NC(=O)Nc2ccc(CCNCc3ccccc3F)c(Cl)c2)cn1 [Example 23, 1-{3-Chloro-4-[2-(2-fluoro-benzylamino)-ethyl]-phenyl}-3-(5-cyano-pyrazin-2-yl)-urea] | three; also recorded: greater than ten |  |  |  | 
18 | 2.7 | < 10 |  | COc1cc(CCNCCc2ccc(F)cc2)ccc1NC(=O)Nc1cnc(C#N)cn1 [Example 31, 1-(5-Cyano-pyrazin-2-yl)-3-(4-{2-[2-(4-fluoro-phenyl)-ethylamino]-ethyl}-2-methoxy-phenyl)-urea] | three |  |  |  | 
19 | 7.9 | < 10 |  | N#Cc1cnc(NC(=O)Nc2ccc(CCNCc3ccc(F)c(F)c3)c(Cl)c2)cn1 [Example 40, 1-{3-Chloro-4-[2-(3,4-difluoro-benzylamino)-ethyl]-phenyl}-3-(5-cyano-pyrazin-2-yl)-urea] | three |  |  |  | 
20 | 0.45 | < 10 |  | COc1cc(CCNCc2ccc(F)cc2)c(Br)cc1NC(=O)Nc1cnc(C#N)cn1 [Example 42, 1-{5-Bromo-4-[2-(4-fluoro-benzylamino)-ethyl]-2-methoxy-phenyl}-3-(5-cyano-pyrazin-2-yl)-urea hydrochloride] | greater than ten | two |  |  | 
21 | 8.9 | < 10 |  | COc1cc(CNCc2ccc(F)cc2)ccc1NC(=O)Nc1cnc(C#N)cn1 [Example 57, 1-(5-Cyano-pyrazin-2-yl)-3-{4-[(4-fluoro-benzylamino)-methyl]-2-methoxy-phenyl}-urea hydrochloride] | greater than ten | two |  |  | 
22 | 1.6 | < 10 |  | COc1ccc(CNCc2ccc(NC(=O)Nc3cnc(C#N)cn3)c(OC)c2)cc1 [Example 60, 1-(5-Cyano-pyrazin-2-yl)-3-{2-methoxy-4-[(4-methoxy-benzylamino)-methyl]-phenyl}-urea] | three; also recorded: greater than ten |  |  |  | 
